Biological target: T1, Orexin/Hypocretin receptor type 1 (Rattus norvegicus, UniProt P56718)
T1 sequence (P56718 whole entry): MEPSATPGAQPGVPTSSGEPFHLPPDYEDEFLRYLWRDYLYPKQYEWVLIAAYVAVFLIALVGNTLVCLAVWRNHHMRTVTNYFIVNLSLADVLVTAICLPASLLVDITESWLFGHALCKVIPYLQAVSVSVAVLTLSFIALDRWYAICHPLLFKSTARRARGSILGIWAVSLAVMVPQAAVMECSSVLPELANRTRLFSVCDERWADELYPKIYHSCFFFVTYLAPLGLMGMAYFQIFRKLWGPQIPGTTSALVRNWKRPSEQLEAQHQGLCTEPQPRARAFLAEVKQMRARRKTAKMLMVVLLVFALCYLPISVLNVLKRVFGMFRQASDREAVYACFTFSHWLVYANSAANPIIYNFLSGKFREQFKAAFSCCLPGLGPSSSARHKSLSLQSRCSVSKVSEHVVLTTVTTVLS
Test: Radioligand Binding Assay: Compound potency can be assessed by a radioligand binding assay (described in Bergman et. al. Bioorg. Med. Chem. Lett. 2008, 18, 1425-1430) in which the inhibition constant (Ki) is determined in membranes prepared from CHO cells expressing either the orexin-1 (OX1) or orexin-2 (OX2) receptor.
Format: cell membranes

Row | Compound | Ki
1 | Cc1ccc(-c2ncccn2)c(C(=O)N2CC(COc3ccc(F)c(C)c3)CCCC2C)c1 (centres undefined) | 42 nM
2 | Cc1ccc(-c2nccs2)c(C(=O)N2CC(COc3ccc(F)cn3)CCCC2C)c1 (centres undefined) | 73 nM
3 | Cc1cc(OCC2COCC(C)N(C(=O)c3ccccc3-n3nccn3)C2)ccc1F (centres undefined) | 39 nM
4 | Cc1ccc(-n2nccn2)c(C(=O)N2CC(COc3ccc(F)c(C)c3)CCCC2C)c1 (centres undefined) | 8.7 nM
5 | Cc1cc(OCC2CCCC(C)N(C(=O)c3ccccc3-n3nccn3)C2)ccc1F (centres undefined) | 50 nM
6 | Cc1ccc(-n2nccn2)c(C(=O)N2CC(COc3ccc(F)cn3)CCCC2C)c1 (centres undefined) | 150 nM
7 | Cc1ccc(-n2nccn2)c(C(=O)N2CCCCC(COc3ccc(F)c(C)c3)C2)c1 (centres undefined) | 15 nM
8 | Cc1ccc(-n2nccn2)c(C(=O)N2CC(COc3ccc(F)c(C)c3)COCC2C)c1 (centres undefined) | 5.1 nM
9 | Cc1ccc(-c2ncccn2)c(C(=O)N2CC(COc3ccc(F)cn3)CCCC2C)c1 (centres undefined) | 310 nM

Reference: ChEMBL document CHEMBL3639372, “Disubstituted azepan orexin receptor antagonists” (2014)
